Results from patent publication US20070042452A1, “Detection of plasma ACE2” (priority 2005, published 2007).
Entries after “also recorded” stand apart in the source; their conditions may differ.

How the values were obtained:
[1] = test system: ACE2 release from the plasma membrane of CHO cells expressing full-length human ACE2; assay: Shedding of ACE2 from Chinese hamster ovary cells (ACE2 activity in medium, QFS assay); assay type: cell-based; details: PMA 1 μM, 4 hr incubation
Procedure: ACE2 catalytic activity was measured by cleavage of a quenched fluorescent substrate (QFS), namely (7-methoxycoumarin-4-yl)-acetyl-Ala-Pro-Lys(2,4-dinitrophenyl) as published in Vickers et al, 2002. The substrate is kept as stock at 5 mg/ml (7.14 mM) at −20° C. in DMSO, diluted 14.28-fold in ACE2 buffer (100 mM Tris-HCl, 1 M NaCl, pH 6.5) for a 500 μM working stock for assay. Assays were performed in black 96-well microtiter plates with 100 μl/well sample and ACE2 buffer in a final volume of 200 μl per well. In a separate series of wells, 100 μl/well sample, […] ACE2 buffer, and 20 μl/well of the specific ACE2 activity inhibitor, MLN-4760 (Millenium Pharmaceuticals, Cambridge, Mass., USA) at 100 mM is added. 50 μM QFS (20 μl/well) is then added to all wells.
Reactions proceeded at 37° C. within a temperature-controlled fluorescence microplate reader (FLUOStar Optima, BMG Labtech, Offenburg, Germany) and continuous readings of the liberated fluorescence taken over a 4 hr period (λex=320 nm, λem =405 nm). Specific ACE2 activity was calculated by subtraction of fluorescence in the presence of MLN-4760 inhibitor from the fluorescence in the absence of the MLN-4760 inhibitor.
Full-length human ACE2 was expressed in Chinese hamster ovary (CHO) cells using a modified DEAE-Dextran transfection method. […]

[2] = test system: HepG2 cells; assay: Shedding of ACE2 from HepG2 cells; assay type: cell-based; details: endogenous ACE2, phorbol ester treatment, data not shown

Question: How did the “ACE2 release from the plasma membrane (ACE2 catalytic activity in medium)” value [1] turn out when `CCCCCCCCCCCCCC(=O)O[C@@H]1[C@@H](C)[C@@]2(O)[C@@H](C=C(CO)C[C@]3(O)C(=O)C(C)=C[C@@H]23)[C@@H]2C(C)(C)[C@]12OC(C)=O` [PMA] was run?
Answer: increased; also recorded: enhanced

Question: What about the “ACE2 release from the plasma membrane (ACE2 catalytic activity in medium)” value ([1]; listed as phorbol ester) of the same compound?
Answer: increased up to two-fold

Question: What about the “shedding of ACE2” value [2] of the same compound?
Answer: increased up to two-fold
